| Compound | logP |
| --- | --- |
| Nc1ccccc1Br | 2.11 |
| OCc1ccccn1 | 0.06 |
| NC(=O)CI | -0.19 |
| CNC(=S)NCCSCc1c[nH]cn1 | 0.16 |
| CCOc1cccc(OC(=O)NC)c1 | 1.75 |
| O=C(O)CSc1c[nH]c2ccccc12 | 1.78 |
| CNc1nc(NC)nc(SC(F)F)n1 | 2.31 |
| OC(c1ccccc1)C1CCCCN1 (configuration not stated) | 1.58 |
| CN(C)C(=O)c1ccccc1O | 0.44 |
| COc1ccccc1OC(C)=O | 1.38 |
| CC(=O)Nc1cc(C)c(O)c(C)c1 | 1.11 |
| C1=CCCC=CCC1 | 3.16 |
| Cc1cccc(NC(N)=O)c1 | 1.29 |
| CCCC(=O)O[C@H]1[C@H](C)O[C@@H](O[C@H]2[C@H](N(C)C)[C@@H](O)[C@H](O[C@H]3[C@@H](CC=O)C[C@@H](C)[C@@H](O)C=CC=CC[C@@H](C)OC(=O)C[C@@H](O)[C@@H]3OC)O[C@@H]2C)C[C@@]1(C)OC(=O)CC | 3.08 |
| CC(C)I | 2.89 |
| N#CCc1ccsc1 | 1.26 |
| COc1ccccc1C=CC(=O)OCCOc1ccc(C=NO)cc1OC | 3.56 |
| OCCNCc1ccccc1 | 0.79 |
| Cc1ccc(C(=O)NN)cc1 | 0.72 |
| c1ccc(-c2cccs2)cc1 | 3.74 |
| CC(=O)N[C@@H](CO)C(=O)N[C@@H](Cc1ccccc1)C(N)=O | -0.79 |

| Compound | logP |
| --- | --- |
| CC(=O)Nc1cccc(OCC(=O)O)c1 | 0.48 |
| COc1ccccc1NCCO | 1.5 |
| CC(C)N(CCC(C(N)=O)c1ccc(-c2ccccc2)cc1)C(C)C (configuration not stated) | 3.66 |
| NC(=O)Nc1ccc(C(O)C(CO)NC(=O)C(Cl)Cl)cc1 (configuration not stated) | -0.6 |
| CNC(=O)Oc1cc(C(C)C)cc(C(C)C)c1 | 3.79 |
| CNc1nc(C)nc2c1ncn2[C@@H]1O[C@H](CO)C[C@@H]1F | 0.64 |
| CCOCCCl | 0.98 |
| Cc1[nH]cnc1CSCCNc1cc[nH]c(=O)n1 | -0.4 |
| COc1ccc(OC)c(Cc2cnc3nc(N)nc(N)c3c2C)c1 | 2.13 |
| Cc1n[nH]c(C(=O)Nc2ccccc2)c1[N+](=O)[O-] | 1.81 |
| CC(=O)Nc1ncnc2c1ncn2C | -0.41 |
| CCCCCCBr | 3.8 |
| CNC(=O)Oc1cc(C)c(C)c(C)c1 | 2.66 |
| CC1(C)OC(=O)c2ccccc21 | 1.73 |
| C=C(C)C(=O)OCC(C)O (configuration not stated) | 0.97 |
| O=C(O)c1ccccc1Nc1ccccc1 | 4.36 |
| Clc1cc(Cl)cc(Cl)c1 | 4.19 |
| CCCOC(=O)c1ccc(N)cc1 | 2.43 |
| CNN | -1.05 |
| NC(=O)C(=Cc1ccccc1)C(N)=O | -0.13 |
| CS(=O)(=O)Oc1ccccc1 | 1.25 |

| Compound | logP |
| --- | --- |
| CC1=C(C)C(=O)C(C)=C(C)C1=O | 2.23 |
| C=CC | 1.77 |
| Cc1ncc([N+](=O)[O-])n1CCNC(=O)OCc1ccccc1 | 1.69 |
| CCCCc1c(C)nc(NCC)nc1OS(=O)(=O)N(C)C | 2.7 |
| CSSC | 1.77 |
| Cn1ccnc1 | -0.06 |
| COc1cc(C(C)(C)C)c(OC)cc1CC(C)N (configuration not stated) | 3.91 |
| C=CCC1(C(C)CCC)C(=O)NC(=S)NC1=O (configuration not stated) | 3.23 |
| Clc1ccccc1-c1cccc(Cl)c1Cl | 5.31 |
| CN(C)CCCNC(=O)c1ccccc1 | 1.27 |
| CCN1CC(C(O)C(CC2CCCCC2)NC(=O)C(Cc2c[nH]cn2)NC(=O)C(CC(=O)N2CC(OCOCCOC)C(OCOCCOC)C2)Cc2ccccc2)OC1=O (configuration not stated) | 1.87 |
| O=C(O)COc1ccccc1F | 1.39 |
| CC(C)CN | 0.73 |
| CSCC[C@H](N)C(=O)O | -1.87 |
| ClC(Cl)(Cl)c1ccc(C(Cl)(Cl)Cl)cc1 | 4.62 |
| CCc1ccc(N2C(=O)CCC2=O)cc1 | 1.1 |
| CCN(CC)c1ccccc1 | 3.31 |
| N#CCCl | 0.45 |
| Nc1ccc(C(=O)Oc2cccc(Cl)c2)c(O)c1 | 3.9 |
| CCC(C)(C)C(=O)O | 1.9 |
| COC(=O)C(F)(F)F | 0.6 |

| Compound | logP |
| --- | --- |
| O=C(O)CCCn1nnc2ccccc21 | 0.01 |
| COc1ccccc1C(=O)O | 1.59 |
| O=C(NC(=O)c1ccccc1O)c1ccccc1 | 1.38 |
| Cc1ccccc1OCC(O)CO (configuration not stated) | 1.41 |
| Fc1cccc(CCl)c1 | 2.77 |
| O=C(O)c1cc(Cl)ccc1[N+](=O)[O-] | 2.13 |
| COc1cc(O)cc(OC)c1 | 1.64 |
| CCN(CC)C(=O)c1ccccc1 | 1.25 |
| COc1cccc2c1C(=O)c1c(O)c3c(c(O)c1C2=O)CC(O)(C(C)O)CC3OC1CC(N2CCOCC2)C(O)C(C)O1 (configuration not stated) | 2.03 |
| O=CNc1cccc2cccnc12 | 1.8 |
| Clc1ccc2nccnc2c1 | 2.1 |
| Nc1ccc(S(=O)(=O)Nc2ccc(S(N)(=O)=O)cc2)cc1 | 0.35 |
| C=C(Br)CC1(C(C)CCC)C(=O)NC(=O)NC1=O (configuration not stated) | 2.09 |
| Cc1ccc(S(I)=C(N(C)C)N(C)C)cc1Cl (configuration not stated) | 0.45 |
| NS(=O)(=O)c1ccccc1 | 0.31 |
| CCCCCCC(NC(C)=O)C(=O)OC (configuration not stated) | 1.7 |
| CCCC=O | 0.88 |
| CCC(C)N(CC(O)COc1ccccc1)CC(O)COc1ccccc1 (configuration not stated) | 3.46 |
| Oc1ccc(Nc2ccccc2)cc1 | 2.82 |

Reference: the OPERA property sets (Mansouri et al. 2018)
